Tested on: T1, Cohnella sp. A01 laccase
T1 construct: gene multicopper oxidase; recombinant in E. coli BL21, pET-26b(+) NcoI/XhoI, His-tagged, Ni-Sepharose purified
Assay: oxidation followed at […] nm, Michaelis-Menten fit
Type: biochemical
Conditions: 0.3-2.5 mM DMP; phosphate buffer; assay pH 8 and 90 °C (optimum; not restated for the kinetics)

Km: 686 µM
SMILES: COc1cccc(OC)c1O [2,6-dimethoxyphenol]

From publication PMC6819783, “Cohnella sp. A01 laccase: thermostable, detergent resistant, anti-environmental and industrial pollutants enzyme” (Heliyon, 2019)
